Results from publication PMC12607897, “Inhibition of HIV-1 replication by primer RNA packaging inhibitors” (mBio, 2025).
Like-named read-outs stand apart in the source and are kept apart here.

How the values were obtained:
[1] = target: T1, mLysRS:IN interaction (human mLysRS, HIV-1 IN) (UniProt P12497+Q15046); test: HTRF assay of mLysRS:IN interaction; type: binding, human / HIV-1; details: for effect on the mLysRS:IN interaction in the HTRF assay: dihydropyridine derivatives, Fig. S2
T1 construct: made in house
T1 sequence (Q15046 other isoform, or with tags, fused parts or gaps, other chains not shown): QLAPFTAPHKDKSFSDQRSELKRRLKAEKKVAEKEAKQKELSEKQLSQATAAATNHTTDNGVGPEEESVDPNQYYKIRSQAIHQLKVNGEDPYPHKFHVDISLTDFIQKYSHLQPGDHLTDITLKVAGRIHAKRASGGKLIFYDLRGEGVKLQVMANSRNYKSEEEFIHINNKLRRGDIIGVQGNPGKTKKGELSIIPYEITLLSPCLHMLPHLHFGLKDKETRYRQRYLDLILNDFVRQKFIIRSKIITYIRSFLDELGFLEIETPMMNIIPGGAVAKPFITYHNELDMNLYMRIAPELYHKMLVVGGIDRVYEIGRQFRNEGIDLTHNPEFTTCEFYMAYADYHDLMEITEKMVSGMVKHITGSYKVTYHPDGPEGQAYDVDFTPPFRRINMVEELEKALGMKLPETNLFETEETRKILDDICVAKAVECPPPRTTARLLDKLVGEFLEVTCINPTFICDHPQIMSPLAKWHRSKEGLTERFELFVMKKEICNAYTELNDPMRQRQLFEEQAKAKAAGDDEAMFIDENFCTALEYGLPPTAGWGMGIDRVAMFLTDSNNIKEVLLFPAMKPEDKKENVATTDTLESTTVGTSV
Experimental: Fig 1 Determination of the half-maximal inhibitory concentration (IC50) of the drugs in the mLysRS:IN binding assay. The binding of mLysRS to IN (red) or p38 (blue) was monitored in the HTRF assay in the presence of increasing drug concentrations (9–1,000 µM). The experimental values (symbols) were fitted (curves) to the equation Y = Ymin + {(Ymax − Ymin)/[1 + (X/IC50)^n]}, where n is the Hill coefficient. […] Proteins were isolated as described previously ([4]). Several batches of IN were used throughout this study. […] The molecules are dissolved in DMSO at a final concentration of 10 mM. After a 1 h incubation on ice, antibodies (Cisbio) directed to the His-tag and conjugated with Eu^3+ cryptate (Cisbio #61HISKLB) and the HA-tag conjugated with XL665 (Cisbio #610HAXLB) were added, and incubation was continued for 30 min. After the addition of 50 mM KF, fluorescence of Eu^3+ cryptate and of XL665 was recorded at 620 nm (I620) and 665 nm (I665), respectively, following excitation of Eu^3+ cryptate at 317 nm, in an Infinite M1000 PRO microplate reader (TECAN). The results were expressed as the ratio of I665/I620.

[2] = test system: MT4 cells; test: cell toxicity by MTT assay; type: cell-based, human; details: MTT assay, 1, 3.3 or 10 µM
Experimental: (§1) Fig 3 Effect of the inhibitors on HIV-1 replication and cell toxicity. MT4 cells were infected with NL4-3-GFP virus. Two days after infection, inhibitors were added to the culture medium at final concentrations of 1, 3.3, or 10 µM. The final concentration of DMSO was 0.1%. Five days after infection, GFP expression was quantified by flow cytometry, and cell viability was determined by the MTT assay. NInf corresponds to non-infected cells. Six independent experiments were performed, and standard deviations are shown. A Student t-test was used to determine statistical significance compared with the control experiment with DMSO (*: P < 0.001; **: P < 0.0001).
Replication of the NL4-3 virus was determined either by the ELISA technique or in HeLa-P4 cells by the CPRG method as described previously ([29]). These are HeLa CD4 LTR-lacZ cells in which the expression of lacZ is induced by the HIV transactivator Tat, allowing precise quantification of the infectivity of HIV-1. The viral titer was determined by quantifying β-galactosidase activity in HeLa-P4 lysates in a colorimetric assay based on the cleavage of chlorophenol red-β-D-galactopyranoside (CPRG) by β-galactosidase. The cytotoxicity is evaluated by the MTT assay.

[3] = test system: HIV-1 NLENG1-IRES-GFP (NL4-3-GFP) virus in MT4 cells; test: ex vivo HIV-1 replication assay, GFP expression by flow cytometry in infected MT4 cells (multiple cycles); type: cell-based; details: for GFP fluorescence, % of the value observed when DMSO was added alone: drug 10 µM, added 36–48 h after infection, read 72 h later
Experimental: To test this hypothesis, azelastine, lacidipine, and cilnidipine were used in an ex vivo assay to determine their effect on HIV-1 proliferation. MT4 cells were infected with NLENG1-IRES-GFP, a virus that allows for multiple cycles of infection, and the molecules were added to the medium 36–48 h after infection, before the completion of the first round of viral infection; 72 h after the drugs were added, when two rounds of HIV-1 infection were underway, the level of GFP fluorescence was determined by flow cytometry, as a marker of HIV-1 infection (Fig. 3, left panel). HIV-1 replication was inhibited in a dose-dependent manner. […]. […] At the same time, no drug toxicity was observed, as determined by the MTT assay (Fig. 3, right panel). […] The selectivity index (SI) ([24]) of the three drugs, defined as the ratio of 50% cytotoxic concentration (CC50; >20 µM) to 50% inhibitory concentration (IC50; ~5 µM), >4.
as §1
MT4 cell line ([26]) was maintained in RPMI 1640. HEK293T and HeLa-P4 cells ([27]) were maintained in Dulbecco’s modified Eagle medium (DMEM). All media were supplemented with Glutamax and with 10% heat-inactivated fetal calf serum (Hyclone) and 1% penicillin/streptomycin (100 units/mL) (Gibco). All media were purchased from Gibco (Life Technologies Co.). All cell lines used here were incubated at 37 °C, under 5% CO2 atmosphere. HIV-1 stocks were prepared by calcium phosphate-mediated transfection of HEK293T cells, as previously described ([22]), with shuttle vector plasmids encoding HIV-1 NL4-3 (GenBank: AF324493.1) or NLENG1-IRES-GFP ([28]). The latter vector comes from the HIV NL4-3 strain and contains a gfp-IRES-nef cassette at the nef locus. […].
For NL4-3-GFP vectors, viral infection is followed by GFP expression (i.e., the percentage and geometric mean fluorescence intensity [MFI] of GFP^+ cells). Infectivity was estimated by flow cytometry using a FACS Celesta flow cytometer (BD Biosciences). Toxicity is also assessed by flow cytometry (side and forward scatter).

[4] = test system: HIV-1 NL4-3 virus particles; test: digital PCR / RT-dPCR of minus-strand strong stop cDNA and viral RNA in particles; type: cell-based; details: 10 µM drug, 72 and 96 h after infection
Description: We used digital RT-PCR and digital PCR to determine the viral mRNA and minus-strand strong stop viral cDNA content of the particles (Fig. 7; Fig. S6). The amount of early viral cDNA produced in the HIV-1 particles is a measure of the efficiency of the initiation step of reverse transcription, which requires the packaging of tRNA3^Lys at the budding step, the primer for cDNA synthesis.
Fig 7 Effect of drugs on viral synthesis of minus-strand strong stop cDNA. Viruses were harvested from the culture medium after 72 (red) or 96 h (blue) of infection of MT4 cells with NL4-3 viruses. Minus-strand strong stop viral DNA and viral RNA (vRNA) were quantified by digital PCR and RT-dPCR, respectively. Viruses were harvested from cultures grown in the presence of 10 µM of azelastine (Aze), lacidipine (Lac), or cilnidipine (Cil), or H2O or DMSO as controls. Values and the associated standard deviations (n = 3) are expressed as the ratios of the values obtained for the H2O or DMSO controls. […].
MT4 cells (2 × 10^6 cells) were infected with the NL4-3 viruses. After 4–5 h of infection at 37°C, cells were twice washed with PBS, incubated 5 min at 37°C in 0.25% trypsin-EDTA solution (Gibco) to eliminate viruses remaining in the medium, incubated 5 min at 37°C in complete RPMI medium, twice washed with PBS, resuspended in RPMI medium at a cell density of 200 × 10^3 cells/mL and incubated with 10 µM of azelastine (25 mM stock solution in H20), or lacidipine and cilnidipine (25 mM stock solution in DMSO). A second aliquot of the inhibitors was added to the culture medium 48 h after infection. […] All RNA and DNA quantifications were performed by digital PCR and RT-qPCR on a QIAcuity instrument (QIAGEN) using 26K 24-well nanoplates and the QIAcuity Probe PCR and One-Step Viral RT-PCR kits. Primers and probes were 5′-[…], 5′-[…], and 5′-[…] for the quantification of minus-strand strong-stop cDNA, and 5′-[…], 5′-[…], and 5′-[…] CGT for viral RNA quantification.

[5] = target: mLysRS (Homo sapiens, UniProt Q15046); test: tRNA aminoacylation assay; type: biochemical; details: drug added up to 1 mM
mLysRS, sequence (Q15046 31-625 isoform Q15046-2): as the sequence (Q15046 other isoform, or with tags, fused parts or gaps, other chains not shown) above
Experimental: Initial rates of tRNA aminoacylation were measured at 25°C in 0.1 mL of 20 mM Imidazole-HCl buffer (pH 7.5), 100 mM KCl, 0.5 mM DTT, 12 mM MgCl2, 2 mM ATP, 180 µM ^14C-labeled lysine (NEN; 16.66 Ci/mol), and saturating amounts of global yeast tRNA ([30]). The incubation mixture contained catalytic amounts (2 nM) of mLysRS appropriately diluted in 10 mM Tris-HCl (pH 7.5), 10 mM 2-mercaptoethanol, containing bovine serum albumin at 4 mg/mL. Inhibitors were added at final concentrations ranging from 3.9 to 1,000 µM. One unit of activity is the amount of enzyme producing 1 nmol of lysine-tRNA^Lys/min, at 25°C.
Fig. S5. Effect of inhibitors on mLysRS activity. The tRNA-aminoacylation activity of mLysRS
was determined in the presence of increasing concentrations of the drugs. Two independent
experiments were performed and standard deviations are shown.
Fig. 6. Raw data of quantification of minus-strand strong stop viral DNA and viral RNA by
digital PCR from viruses recovered after 72 h incubation in the presence of 10 µM of the drugs.

[6] = HTRF, mLysRS 1.5 nM dimer, IN 25 nM dimer, read-out: half-maximal inhibitory concentration (IC50) in the mLysRS:IN assay

SMILES: CCOC(=O)C1=C(C)NC(C)=C(C(=O)OC)C1c1cccc([N+](=O)[O-])c1 (centres unmarked) [nitrendipine]
- IC50 [1]: > 500 µM

SMILES: COC(=O)C1=C(C)NC(C)=C(C(=O)OC(C)C)C1c1cccc2nonc12 (centres unmarked) [isradipine]
- IC50 [1]: > 500 µM

SMILES: CCCC(=O)OCOC(=O)C1=C(C)NC(C)=C(C(=O)OC)C1c1cccc(Cl)c1Cl (centres unmarked) [celvidipine]
- effect on the mLysRS:IN interaction in the HTRF assay [1]: did not significantly alter

SMILES: COC(=O)C1=C(C)NC(C)=C(C(=O)OC(C)(C)CN(C)CCC(c2ccccc2)c2ccccc2)C1c1cccc([N+](=O)[O-])c1 (centres unmarked) [Lercanidipine]
- cell toxicity [2]: higher cellular toxicity

SMILES: CCOC(=O)C1=C(C)NC(C)=C(C(=O)OCC)C1c1ccccc1/C=C/C(=O)OC(C)(C)C [lacidipine]
- GFP fluorescence, % of the value observed when DMSO was added alone [3]: 27.2%
- IC50 [1, 6]: 64 ± 8 µM
- minus-strand strong stop cDNA in viruses, normalized to viral RNA [4]: significantly reduced
- inhibition of Lysyl-tRNA^Lys synthesis [5]: 30%

SMILES: CC1=C(C(=O)OC(C)C)C(c2cccc([N+](=O)[O-])c2)C(C(=O)OC2CN(C(c3ccccc3)c3ccccc3)C2)=C(N)N1 (centres unmarked) [azelnidipine]
- cell toxicity [2]: higher cellular toxicity

SMILES: CCOC(=O)C1=C(C)NC(C)=C(C(=O)OC)C1c1cccc(Cl)c1Cl (centres unmarked) [felodipine]
- effect on the mLysRS:IN interaction in the HTRF assay [1]: did not significantly alter

SMILES: COCCOC(=O)C1=C(C)NC(C)=C(C(=O)OC(C)C)C1c1cccc([N+](=O)[O-])c1 (centres unmarked) [nimodipine]
- effect on the mLysRS:IN interaction in the HTRF assay [1]: did not significantly alter

SMILES: COCCOC(=O)C1=C(C)NC(C)=C(C(=O)OC/C=C/c2ccccc2)C1c1cccc([N+](=O)[O-])c1 (centres unmarked) [cilnidipine]
- GFP fluorescence, % of the value observed when DMSO was added alone [3]: 18.9%
- IC50 [1, 6]: 310 ± 30 µM
- minus-strand strong stop cDNA in viruses, normalized to viral RNA [4]: significantly reduced
- inhibition of Lysyl-tRNA^Lys synthesis [5]: did not inhibit

SMILES: COC(=O)C1=C(C#N)NC(C)=C(C(=O)OC(C)C)C1c1cccc([N+](=O)[O-])c1 (centres unmarked) [nivaldipine]
- IC50 [1, 6]: > 500 µM

SMILES: CCOC(=O)C1=C(COCCN)NC(C)=C(C(=O)OC)[C@@H]1c1ccccc1Cl [levamlodipine]
- effect on the mLysRS:IN interaction in the HTRF assay [1]: did not significantly alter

SMILES: CCOC(=O)C1=C(C)NC(C)=C(C(=O)OCC)C1 [Diludine]
- effect on the mLysRS:IN interaction in the HTRF assay [1]: did not significantly alter

SMILES: COC(=O)C1=C(C)NC(C)=C(C(=O)OCCN(C)Cc2ccccc2)C1c1cccc([N+](=O)[O-])c1 (centres unmarked) [nicardipine]
- IC50 [1]: > 500 µM

SMILES: COC(=O)C1=C(C)NC(C)=C(C(=O)OCC(C)C)C1c1ccccc1[N+](=O)[O-] (centres unmarked) [nisoldipine]
- inhibition of HIV-1 replication in the ex vivo assay ([3]; NL4-3-GFP, Fig. S3): did not inhibit
